The conditions of data set [1]: recent reports; cited from earlier work.
For data set [2], the system named is animal enzymes. As to conditions: more recent studies; cited from earlier work.
The conditions of data set [3]: 25° C.; cited from earlier work.
The conditions of data set [4]: compared to digitoxin; cited from earlier work.
For data set [5] the following is noted: in vivo; cited from earlier work.
Data set [6] in a line: physchem. The conditions noted are these: 0.01 n hcl.
For data set [7] the following is noted: from the gastrointestinal tract, cited from earlier work.

The values below come from patent publication US4021546A (priority 1976, dated 1977).

Structures are written as SMILES. In brackets after ≈: the same amount, converted by molar mass.

In the case of `CO[C@H]1[C@@H](O)C[C@H](O[C@H]2[C@@H](O)C[C@H](O[C@H]3[C@@H](O)C[C@H](O[C@H]4CC[C@@]5(C)[C@H](CC[C@@H]6[C@@H]5C[C@@H](O)[C@]5(C)[C@@H](C7=CC(=O)OC7)CC[C@]65O)C4)O[C@@H]3C)O[C@@H]2C)O[C@@H]1C` [4'"-methyldigoxin], in data set [1], the demethylation in man entry was “actually demethylated in man”. Moreover, the “resistance to degradation by animal enzymes” value in data set [2] is recorded as “very resistant to degradation by animal enzymes”.

`C[C@H]1O[C@@H](O[C@H]2[C@@H](O)C[C@H](O[C@H]3[C@@H](O)C[C@H](O[C@H]4CC[C@@]5(C)[C@H](CC[C@@H]6[C@@H]5C[C@@H](O)[C@]5(C)[C@@H](C7=CC(=O)OC7)CC[C@]65O)C4)O[C@@H]3C)O[C@@H]2C)C[C@H](O)[C@@H]1O` [digoxin]: the “solubility per ml of 0.1 N HCl” value in data set [3] was “about 78 mcg/ml”. Besides, in data set [4], the duration of action result is “shorter” and the onset of action entry is “quite more rapid”. For the same compound, the “closeness of therapeutic and toxic dose” value in data set [5] is listed as “extremely close”. Moreover, the solubility (in general, how much of the substance goes into solution per volume) in data set [6] was approximately 78 µg/mL (≈ 99.9 µM). In addition, the “completeness of absorption vs digitoxin” value in data set [7] (compared to digitoxin) is recorded as “not as completely absorbed”. Further, the extent of absorption in data set [7] is 50% to 70.
